In PMC8878721, “Screening of TNFR1 Binding Peptides from Deinagkistrodon acutus Venom through Phage Display” (Toxins, 2022):

Legend:
[1] = system: pro-inflammatory cytokines; conditions: snake venom extracts; ref [2],[3],[4]; cited from earlier work
Excerpt: Snake venoms have been used as traditional Chinese medicines for hundreds of years, and they have a positive effect on autoimmune inflammatory diseases such as rheumatoid arthritis. However, their active, effective ingredients and their mechanisms of action are not fully understood yet. Studies have shown that snake venom is a mixture of proteins and peptides with various biological activities, including anti-tumor, anti-inflammatory, anti-stroke, and analgesic activities. For example, snake venom extracts such as Cathelicidin-BF and Cathelicidin-CATH can inhibit pro-inflammatory cytokin ...

[2] = Dissolution test of DAvp-1; format: physicochemical
Description: DAvp-1, which appeared in the white lyophilized powder, was synthesized following the solid phase peptide synthesis (SPPS) Fmoc protocol, and Mass Spectrometer (MS) and HPLC were used for quantitative and qualitative verification. A purity of 95.346% was determined with the HPLC methodology (Figure 3A). The mass-to-charge ratios of [M+8H]^8+, [M+7H]^7+, [M+6H]^6+, and [M+5H]^5+ were 594.5, 679.3, 792.3, and 950.5, respectively, and the highest peak of [M+5H]^5+ was selected to calculate the molecular weight (MW). The formula is (1) MW=m/z×C−C(1) where MW is the molecular weight, m/z is the mass-to-charge ratio, and C is the charge.
Homologous modeling has been developed for predicting the 3D structure of proteins and peptides originating from various organisms, and this most accurate modeling method was widely used in structural biology. Software simulations were applied to test if there was a positive interaction with TNFR1 [37]. […] A promising solubility is conducive to the development of drugs.

Row | Compound | effect on pro-inflammatory cytokines [1] | solubility in PBS ([2]; 1 × phosphate buffer saline (PBS) (pH 7.1), lyophilized powder, qualitative) | solubility in DMSO ([2]; dimethyl sulfoxide (DMSO), lyophilized powder, qualitative) | solubility (overall) ([2]; dissolution test, in words) | solubility in ultrapure water ([2]; ultrapure water, lyophilized powder, qualitative)
1 | Cathelicidin-BF | can inhibit pro-inflammatory cytokines |  |  |  | 
2 | CSCC[C@H](NC(=O)[C@H](CCCNC(=N)N)NC(=O)CNC(=O)[C@H](CCCNC(=N)N)NC(=O)[C@H](CC(C)C)NC(=O)[C@@H](NC(=O)[C@H](CC(C)C)NC(=O)[C@H](CO)NC(=O)[C@@H](N)CC(N)=O)C(C)C)C(=O)N[C@@H](CCCNC(=N)N)C(=O)N[C@@H](CC(=O)O)C(=O)N[C@H](C(=O)N[C@@H](CCCCN)C(=O)N[C@H](C(=O)N[C@@H](CCCNC(=N)N)C(=O)N[C@@H](CC(=O)O)C(=O)N[C@@H](CC(=O)O)C(=O)NCC(=O)N[C@@H](CCCNC(=N)N)C(=O)N[C@@H](CCCCN)C(=O)N[C@@H](CO)C(=O)N1CCC[C@H]1C(=O)N[C@@H](CO)C(=O)N[C@@H](Cc1c[nH]cn1)C(=O)N[C@@H](Cc1c[nH]cn1)C(=O)N[C@@H](CO)C(=O)N[C@@H](CCCCN)C(=O)N[C@@H](Cc1ccccc1)C(=O)N[C@@H](CO)C(=O)NCC(=O)NCC(=O)N[C@H](C(=O)N[C@@H](CCCNC(=N)N)C(=O)N[C@@H](CC(N)=O)C(=O)N[C@@H](Cc1c[nH]c2ccccc12)C(=O)N[C@@H](CCC(N)=O)C(=O)N[C@@H](CCCCN)C(=O)N[C@@H](CC(C)C)C(=O)N[C@H](C(=O)N[C@@H](CCCCN)C(=O)N[C@@H](CC(C)C)C(=O)O)C(C)C)[C@@H](C)O)C(C)C)C(C)C [DAvp-1] |  | could be dissolved | could be dissolved | good solubility | could be dissolved
